Results from publication PMC8903829 (eLife, 2022).
“And” between values parts separate entries of the source, which are not always exact repeats. Identical values can stand only once. “Also recorded” adds a separate entry of the source.

Experiments:
[1] = biological target: T1, hNaV1.6 (Homo sapiens, UniProt Q9UQD0); experiment: Qube 384 automated patch-clamp, inactivated-state inhibition; type: cell-based; settings: for hNav1.6 current in (352)/(Vehicle), mean: Inactivated (-45mV)
T1 construct: expression vector containing the full-length cDNA coding for specific human and mouse sodium channel α-subunit; expressed in transfected cells
Target sequence in this assay (Q9UQD0 whole entry): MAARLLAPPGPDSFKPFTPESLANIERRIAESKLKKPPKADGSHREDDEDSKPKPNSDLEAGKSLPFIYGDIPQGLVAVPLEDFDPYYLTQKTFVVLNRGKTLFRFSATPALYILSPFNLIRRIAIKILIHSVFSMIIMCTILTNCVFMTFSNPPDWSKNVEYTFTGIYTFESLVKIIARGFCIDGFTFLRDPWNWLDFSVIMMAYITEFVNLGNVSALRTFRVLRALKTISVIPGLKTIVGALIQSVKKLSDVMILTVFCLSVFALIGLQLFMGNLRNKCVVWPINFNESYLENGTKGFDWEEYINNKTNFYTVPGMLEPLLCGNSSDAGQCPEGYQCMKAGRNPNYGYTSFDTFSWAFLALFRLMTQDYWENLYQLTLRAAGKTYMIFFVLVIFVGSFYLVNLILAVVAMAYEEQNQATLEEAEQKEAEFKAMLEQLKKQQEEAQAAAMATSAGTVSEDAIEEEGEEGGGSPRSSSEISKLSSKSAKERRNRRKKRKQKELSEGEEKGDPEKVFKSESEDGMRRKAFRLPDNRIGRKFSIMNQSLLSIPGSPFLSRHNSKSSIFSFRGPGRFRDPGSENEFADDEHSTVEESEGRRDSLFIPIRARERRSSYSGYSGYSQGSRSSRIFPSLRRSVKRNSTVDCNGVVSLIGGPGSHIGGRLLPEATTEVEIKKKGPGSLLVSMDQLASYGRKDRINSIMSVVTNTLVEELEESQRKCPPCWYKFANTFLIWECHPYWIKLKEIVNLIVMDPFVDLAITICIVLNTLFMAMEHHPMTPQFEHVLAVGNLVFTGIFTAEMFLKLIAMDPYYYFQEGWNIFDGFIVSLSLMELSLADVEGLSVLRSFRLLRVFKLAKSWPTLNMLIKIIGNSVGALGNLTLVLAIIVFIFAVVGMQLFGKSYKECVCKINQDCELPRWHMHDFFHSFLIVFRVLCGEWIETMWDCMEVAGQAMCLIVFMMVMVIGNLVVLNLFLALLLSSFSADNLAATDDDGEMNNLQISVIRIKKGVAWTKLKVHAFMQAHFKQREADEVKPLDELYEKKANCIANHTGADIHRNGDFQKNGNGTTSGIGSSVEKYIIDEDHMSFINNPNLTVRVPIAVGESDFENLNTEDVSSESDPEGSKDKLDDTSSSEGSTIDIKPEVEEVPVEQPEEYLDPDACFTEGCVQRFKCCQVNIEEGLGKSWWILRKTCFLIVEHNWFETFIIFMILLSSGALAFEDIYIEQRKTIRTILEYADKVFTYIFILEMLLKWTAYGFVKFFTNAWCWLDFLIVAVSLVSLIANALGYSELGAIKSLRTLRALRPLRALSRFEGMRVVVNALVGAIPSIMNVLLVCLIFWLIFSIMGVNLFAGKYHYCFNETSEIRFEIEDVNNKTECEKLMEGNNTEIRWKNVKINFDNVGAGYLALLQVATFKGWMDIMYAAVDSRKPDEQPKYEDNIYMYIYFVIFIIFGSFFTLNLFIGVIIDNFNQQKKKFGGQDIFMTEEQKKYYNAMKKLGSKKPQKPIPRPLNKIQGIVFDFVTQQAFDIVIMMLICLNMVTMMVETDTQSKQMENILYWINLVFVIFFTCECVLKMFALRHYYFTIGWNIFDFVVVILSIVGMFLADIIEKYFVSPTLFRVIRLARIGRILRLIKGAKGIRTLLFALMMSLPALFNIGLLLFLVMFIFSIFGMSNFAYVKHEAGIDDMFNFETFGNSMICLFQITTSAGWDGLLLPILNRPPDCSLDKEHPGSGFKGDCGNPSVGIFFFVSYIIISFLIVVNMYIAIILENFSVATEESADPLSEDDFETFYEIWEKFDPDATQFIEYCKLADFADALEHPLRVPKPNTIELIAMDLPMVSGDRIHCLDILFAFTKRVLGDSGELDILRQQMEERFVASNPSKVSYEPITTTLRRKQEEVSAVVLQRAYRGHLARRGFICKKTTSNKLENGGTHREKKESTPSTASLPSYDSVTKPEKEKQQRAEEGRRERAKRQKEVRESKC

[2] = biological target: T2, hNaV1.1 (Homo sapiens, UniProt P35498); experiment: as above; type: cell-based
T2 construct: expression vector containing the full-length cDNA coding for specific human and mouse sodium channel α-subunit; expressed in transfected cells

[3] = biological target: T3, hNaV1.5 (Homo sapiens, UniProt Q14524); experiment: as above; type: cell-based
T3 construct: expression vector containing the full-length cDNA coding for specific human and mouse sodium channel α-subunit; expressed in transfected cells

[4] = biological target: T4, hNaV1.6 N1466K (Homo sapiens, UniProt Q9UQD0, N1466K); experiment: Automated patch-clamp, patient-identified variant in Expi293F cells; type: cell-based; set-up: h1.6 -N1466K 145756, Mean: scale not given here
T4 construct: expression vector containing the full-length cDNA coding for specific human and mouse sodium channel α-subunit; expressed in transfected cells; host or cells: Expi293F (transient, tetracycline-induced, pcDNA4/TO)
Description: For studies of mutant channels, cDNA plasmids in pcDNA4/TO Mammalian Expression Vector were transiently transfected into Expi293F cells stably expressing human FHF2b and human SCN1B subunit (polyclonal) background using ExpiFectamine 293 Transfection Kits (Gibco,Thermo Fisher Scientific CAT #: A14524). Induction was achieved using Tetracycline (Sigma Aldrich). Transfected cells were used in automated patch-clamp experiments 24 hours postinduction.
Inorm(CPD)=(ICPD−Icontrol)/(ITTX−Icontrol).

[5] = biological target: T1, hNaV1.6; experiment: V0.5 assay (holding potential -62 mV); type: cell-based; settings: V0.5 assay -62 mV
Target sequence in this assay (Q9UQD0 whole entry): as above
Target sequence in this assay (Q92913 1-192 isoform Q92913-2 partner): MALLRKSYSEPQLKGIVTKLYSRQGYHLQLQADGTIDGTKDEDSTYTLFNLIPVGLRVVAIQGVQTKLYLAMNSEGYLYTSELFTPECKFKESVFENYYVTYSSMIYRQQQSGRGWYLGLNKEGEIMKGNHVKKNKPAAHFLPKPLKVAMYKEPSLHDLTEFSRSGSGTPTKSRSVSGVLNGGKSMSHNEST

[6] = system: glutamatergic pyramidal neurons from mouse layer five neocortex; experiment: Current-clamp recording in brain slices, action-potential firing; type: cell-based; settings: for WT Cortical pyramidal neurons APs/1s: 0.25 μM, individual neurons; for Cumulative number of action potentials fired by each cell on increasing current injections: 250 nM, WT cortical pyramidal neurons
Description: Parasagittal cortical brain slices were prepared from> P21 mice using standard procedures (adapted from Tai et al., PNAS 2014). Briefly, the mouse was deeply anaesthetized with isoflurane and decapitated. The brain was removed and placed into chilled artificial cerebrospinal fluid (aCSF) solution containing (in mM): 125 NaCl, 25 NaHCO3, 2.5 KCl, 1.25 NaH2PO4, 2 CaCl2, 2 MgCl2, 10 d-glucose, pH 7.3, osmolarity adjusted to ~306 mOsm using sucrose. All solutions were saturated with 95% O2 and 5% CO2 constantly perfused with 95% O2/5% CO2. Slices with a thickness of 400 µm were prepared using a vibratome (Ted Pella, Inc). Following sectioning, the slices were placed in a holding chamber and incubated in a water bath at 34 °C for 15 min. The brain slices were removed from the water bath and held at room temperature for 60 min prior to recording.
All experiments involving rodent subjects were performed in accordance with the guidelines of the Canadian Council on Animal Care (CCAC). Following a 60-min incubation at room temperature, a brain slice was selected and placed on the stage of an upright microscope (SliceScope Pro 2000, Scientifica). The slice was constantly perfused with room temperature aCSF, containing 0.1% DMSO as a vehicle control, and oxygenated with 95% O2/5% CO2.The slice was visualized using brightfield microscopy, and a healthy neuron was selected from neocortical layer 5. […] Stimulation was applied in current-clamp mode, and consisted of a series of 1000ms square pulses, beginning at –20 pA and increasing by +20 pA increments (3000ms between pulses).
The slice was incubated in circulating compound for 10 min before repeating the series of square pulse stimulations. Working stock solutions were prepared in DMSO at a concentration of 20 mM.
All data analysis was done offline using ClampFit 10.7 (Molecular Devices). Data are presented as a mean ± SEM. For each sweep, the number of evoked APs was counted, and plotted as a function of current injection (beginning with –20 pA). […] Statistical significance was assessed using paired, two-way, student’s t-test applied at each current injection level with significance considered p < 0.05.

[7] = set-up: method as in Beatch et al., 2020; settings: humans; ref Beatch et al., 2020; cited from earlier work

T3 sequence (Q14524 whole entry): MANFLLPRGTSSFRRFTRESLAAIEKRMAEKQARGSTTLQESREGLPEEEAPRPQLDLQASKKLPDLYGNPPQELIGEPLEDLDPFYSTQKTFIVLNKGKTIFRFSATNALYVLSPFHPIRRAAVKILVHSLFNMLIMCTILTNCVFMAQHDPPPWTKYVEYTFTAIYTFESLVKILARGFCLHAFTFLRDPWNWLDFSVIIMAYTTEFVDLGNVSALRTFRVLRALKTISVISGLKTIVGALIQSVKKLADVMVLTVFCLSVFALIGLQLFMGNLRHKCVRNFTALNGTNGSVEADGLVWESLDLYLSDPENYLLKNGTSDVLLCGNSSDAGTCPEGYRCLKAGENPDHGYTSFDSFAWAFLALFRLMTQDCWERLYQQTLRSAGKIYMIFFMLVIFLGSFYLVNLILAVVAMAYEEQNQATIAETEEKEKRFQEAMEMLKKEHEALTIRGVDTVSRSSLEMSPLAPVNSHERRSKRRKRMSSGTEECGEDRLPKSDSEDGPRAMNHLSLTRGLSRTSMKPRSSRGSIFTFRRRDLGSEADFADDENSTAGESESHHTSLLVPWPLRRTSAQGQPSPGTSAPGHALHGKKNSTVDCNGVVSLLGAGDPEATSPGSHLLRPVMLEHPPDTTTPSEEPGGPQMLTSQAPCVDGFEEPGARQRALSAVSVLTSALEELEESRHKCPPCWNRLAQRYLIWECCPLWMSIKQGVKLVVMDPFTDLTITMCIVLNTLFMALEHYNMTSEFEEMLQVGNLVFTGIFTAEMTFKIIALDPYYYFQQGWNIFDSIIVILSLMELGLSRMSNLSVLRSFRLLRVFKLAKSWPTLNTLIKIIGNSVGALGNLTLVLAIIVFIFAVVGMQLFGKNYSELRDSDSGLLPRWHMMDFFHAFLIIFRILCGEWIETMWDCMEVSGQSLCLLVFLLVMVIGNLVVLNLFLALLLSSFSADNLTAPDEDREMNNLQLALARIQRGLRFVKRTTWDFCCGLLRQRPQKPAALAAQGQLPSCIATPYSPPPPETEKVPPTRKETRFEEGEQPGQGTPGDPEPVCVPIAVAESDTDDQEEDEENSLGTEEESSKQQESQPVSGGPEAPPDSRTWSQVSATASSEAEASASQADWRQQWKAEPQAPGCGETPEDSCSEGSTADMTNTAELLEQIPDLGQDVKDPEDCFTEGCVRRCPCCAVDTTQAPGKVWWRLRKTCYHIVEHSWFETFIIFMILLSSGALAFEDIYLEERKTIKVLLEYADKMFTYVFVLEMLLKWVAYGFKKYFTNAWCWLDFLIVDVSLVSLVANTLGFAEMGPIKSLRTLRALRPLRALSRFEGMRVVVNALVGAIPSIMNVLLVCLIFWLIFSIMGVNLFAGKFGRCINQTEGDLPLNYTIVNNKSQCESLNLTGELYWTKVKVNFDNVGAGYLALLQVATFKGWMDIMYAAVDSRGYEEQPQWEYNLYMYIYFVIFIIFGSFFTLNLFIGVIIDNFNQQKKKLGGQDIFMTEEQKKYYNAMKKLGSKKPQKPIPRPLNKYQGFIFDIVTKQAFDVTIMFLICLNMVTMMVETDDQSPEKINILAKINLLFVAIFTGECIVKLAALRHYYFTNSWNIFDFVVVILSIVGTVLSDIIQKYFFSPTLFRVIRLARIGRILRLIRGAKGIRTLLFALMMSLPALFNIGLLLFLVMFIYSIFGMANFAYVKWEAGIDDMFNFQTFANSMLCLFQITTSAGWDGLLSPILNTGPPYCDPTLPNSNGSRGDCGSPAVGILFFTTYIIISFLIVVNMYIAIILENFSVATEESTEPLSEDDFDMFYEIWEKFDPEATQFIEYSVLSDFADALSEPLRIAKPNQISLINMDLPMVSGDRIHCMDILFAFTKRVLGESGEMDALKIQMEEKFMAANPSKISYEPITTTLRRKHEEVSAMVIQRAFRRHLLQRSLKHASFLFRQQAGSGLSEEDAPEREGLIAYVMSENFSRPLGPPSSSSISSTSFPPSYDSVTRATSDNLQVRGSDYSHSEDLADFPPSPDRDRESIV
T4 sequence (Q9UQD0 whole entry N1466K): as the sequence (Q9UQD0 whole entry) above, with N1466K counted along it

Cc1cc(S(=O)(=O)Nc2cscn2)c(F)cc1N(C)[C@H]1CCN(Cc2ccccc2)C1 [NBI-921352]
IC50 [1]: 51 nM | hNav1.6 current in (352)/(Vehicle), mean ([1]; -5 Log M): 0.96 | hNav1.6 current in (352)/(Vehicle), mean ([1]; -5.47716 Log M): 0.91 | hNav1.6 current in (352)/(Vehicle), mean ([1]; -5.95429 Log M): 0.87 | hNav1.6 current in (352)/(Vehicle), mean ([1]; -6.47756 Log M): 0.83 | hNav1.6 current in (352)/(Vehicle), mean ([1]; -6.91009 Log M): 0.68 | hNav1.6 current in (352)/(Vehicle), mean ([1]; -6.95468 Log M): 0.66 | hNav1.6 current in (352)/(Vehicle), mean ([1]; -7.38722 Log M): 0.57 | hNav1.6 current in (352)/(Vehicle), mean ([1]; -7.4318 Log M): 0.52 | hNav1.6 current in (352)/(Vehicle), mean ([1]; -7.85387 Log M): 0.25 | hNav1.6 current in (352)/(Vehicle), mean ([1]; -8.30103 Log M): 0.16 | hNav1.6 current in (352)/(Vehicle), mean ([1]; -8.39794 Log M): 0.12 | hNav1.6 current in (352)/(Vehicle), mean ([1]; -9.34679 Log M): 0.01 | hNav1.1 current in (352)/(Vehicle), mean ([2]; -4 Log M): 0.68 | hNav1.1 current in (352)/(Vehicle), mean ([2]; -4.30103 Log M): 0.57 | hNav1.1 current in (352)/(Vehicle), mean ([2]; -4.47713 Log M): 0.44 | hNav1.1 current in (352)/(Vehicle), mean ([2]; -4.77814 Log M): 0.3 | hNav1.1 current in (352)/(Vehicle), mean ([2]; -4.95425 Log M): 0.25 | hNav1.1 current in (352)/(Vehicle), mean ([2]; -5.25524 Log M): 0.16 | hNav1.1 current in (352)/(Vehicle), mean ([2]; -5.43133 Log M): 0.12 | hNav1.1 current in (352)/(Vehicle), mean ([2]; -5.73236 Log M): 0.07 | hNav1.1 current in (352)/(Vehicle), mean ([2]; -5.90833 Log M): 0.07 | hNav1.1 current in (352)/(Vehicle), mean ([2]; -6.20971 Log M): 0.04 | hNav1.1 current in (352)/(Vehicle), mean ([2]; -6.3851 Log M): 0.03 | hNav1.1 current in (352)/(Vehicle), mean ([2]; -6.68613 Log M): 0.05 | hNav1.1 current in (352)/(Vehicle), mean ([2]; -6.86328 Log M): 0.01 | hNav1.1 current in (352)/(Vehicle), mean ([2]; -7.16115 Log M): 0.04 | hNav1.1 current in (352)/(Vehicle), mean ([2]; -7.33724 Log M): 0 | hNav1.1 current in (352)/(Vehicle), mean ([2]; -7.63827 Log M): 0.01 | inhibition at 30 µM ([3]; 30 µM, NaV1.5, read-out: inhibition at the highest concentration tested): < 50% | hNaV1.5 current (352)/(Vehicle), mean ([3]; -4.52288 Log M): 0.24 | hNaV1.5 current (352)/(Vehicle), mean ([3]; -5 Log M): 0.1 | hNaV1.5 current (352)/(Vehicle), mean ([3]; -5.47716 Log M): 0.02 | hNaV1.5 current (352)/(Vehicle), mean ([3]; -5.95429 Log M): 0.05 | hNaV1.5 current (352)/(Vehicle), mean ([3]; -6.91009 Log M): 0.04 | hNaV1.5 current (352)/(Vehicle), mean ([3]; -7.38722 Log M): -0.02 | hNaV1.5 current (352)/(Vehicle), mean ([3]; -7.85387 Log M): 0.03 | IC50 [4]: 39 nM | h1.6 -N1466K 145756, Mean ([4]; -5 LogM): 0.92 | h1.6 -N1466K 145756, Mean ([4]; -5.47716 LogM): 0.94 | h1.6 -N1466K 145756, Mean ([4]; -5.95429 LogM): 0.81 | h1.6 -N1466K 145756, Mean ([4]; -6.4318 LogM): 0.73 | h1.6 -N1466K 145756, Mean ([4]; -6.91009 LogM): 0.69 | h1.6 -N1466K 145756, Mean ([4]; -7.38722 LogM): 0.47 | h1.6 -N1466K 145756, Mean ([4]; -7.85387 LogM): 0.32 | h1.6 -N1466K 145756, Mean ([4]; -8.33 LogM): 0.15 | Fraction of hNav1.6 current blocked, mean ([5]; 0.0046 µM): -0.01128 | Fraction of hNav1.6 current blocked, mean ([5]; 0.0137 µM): 0.1547 | Fraction of hNav1.6 current blocked, mean ([5]; 0.0412 µM): 0.4966 | Fraction of hNav1.6 current blocked, mean ([5]; 0.123 µM): 0.6688 | Fraction of hNav1.6 current blocked, mean ([5]; 0.37 µM): 0.8319 | Fraction of hNav1.6 current blocked, mean ([5]; 1.11 µM): 0.9499 | Fraction of hNav1.6 current blocked, mean ([5]; 3.33 µM): 0.9695 | Fraction of hNav1.6 current blocked, mean ([5]; 10 µM): 0.9977 | effect on action-potential firing, pyramidal neurons ([6]; 0.25 µM NBI-921352): decreased the maximum firing rate; also recorded: reduced action-potential spiking | WT Cortical pyramidal neurons APs/1s ([6]; 200 pA current injected): 0 APs/1s and 12 APs/1s and 13 APs/1s | WT Cortical pyramidal neurons APs/1s ([6]; current injected 0 pA): 0 APs/1s | WT Cortical pyramidal neurons APs/1s ([6]; current injected 20 pA): 0 APs/1s | WT Cortical pyramidal neurons APs/1s ([6]; current injected 40 pA): 0 APs/1s | WT Cortical pyramidal neurons APs/1s ([6]; current injected 60 pA, row): 0 APs/1s and 1 APs/1s and 2 APs/1s | WT Cortical pyramidal neurons APs/1s ([6]; current injected 80 pA, row): 0 APs/1s and 4 APs/1s and 6 APs/1s | WT Cortical pyramidal neurons APs/1s ([6]; current injected 100 pA, row): 0 APs/1s and 6 APs/1s and 8 APs/1s | WT Cortical pyramidal neurons APs/1s ([6]; current injected 120 pA, row): 0 APs/1s and 7 APs/1s and 9 APs/1s | WT Cortical pyramidal neurons APs/1s ([6]; current injected 140 pA, row): 0 APs/1s and 8 APs/1s and 10 APs/1s | WT Cortical pyramidal neurons APs/1s ([6]; current injected 160 pA, row): 0 APs/1s and 9 APs/1s and 12 APs/1s | WT Cortical pyramidal neurons APs/1s ([6]; current injected 180 pA, row): 0 APs/1s and 11 APs/1s (2×) | WT Cortical pyramidal neurons APs/1s ([6]; current injected 200 pA, row): 0 APs/1s and 12 APs/1s and 13 APs/1s | WT Cortical pyramidal neurons APs/1s ([6]; current injected 220 pA, row): 1 APs/1s and 13 APs/1s and 14 APs/1s | WT Cortical pyramidal neurons APs/1s ([6]; current injected 240 pA, row): 3 APs/1s and 14 APs/1s and 15 APs/1s | WT Cortical pyramidal neurons APs/1s ([6]; current injected 260 pA, row): 4 APs/1s and 15 APs/1s and 13 APs/1s | WT Cortical pyramidal neurons APs/1s ([6]; current injected 280 pA, row): 4 APs/1s and 15 APs/1s and 13 APs/1s | WT Cortical pyramidal neurons APs/1s ([6]; current injected 300 pA, row): 4 APs/1s and 17 APs/1s and 13 APs/1s | WT Cortical pyramidal neurons APs/1s ([6]; current injected 320 pA, row): 5 APs/1s and 18 APs/1s and 13 APs/1s | WT Cortical pyramidal neurons APs/1s ([6]; current injected 340 pA, row): 5 APs/1s and 19 APs/1s and 12 APs/1s | WT Cortical pyramidal neurons APs/1s ([6]; current injected 360 pA, row): 6 APs/1s and 20 APs/1s and 12 APs/1s | WT Cortical pyramidal neurons APs/1s ([6]; current injected 380 pA, row): 7 APs/1s (2×) and 21 APs/1s | WT Cortical pyramidal neurons APs/1s ([6]; current injected 400 pA, row): 8 APs/1s and 22 APs/1s and 13 APs/1s | WT Cortical pyramidal neurons APs/1s ([6]; current injected 420 pA, row): 7 APs/1s and 22 APs/1s and 5 APs/1s | WT Cortical pyramidal neurons APs/1s ([6]; current injected 440 pA, row): 7 APs/1s and 23 APs/1s and 4 APs/1s | WT Cortical pyramidal neurons APs/1s ([6]; current injected -20 pA): 0 APs/1s | Cumulative number of action potentials fired by each cell on increasing current injections ([6]; up to current injected 0 pA): 0 | Cumulative number of action potentials fired by each cell on increasing current injections ([6]; up to current injected 20 pA): 0 | Cumulative number of action potentials fired by each cell on increasing current injections ([6]; up to current injected 40 pA): 0 | Cumulative number of action potentials fired by each cell on increasing current injections ([6]; up to current injected -20 pA): 0 | half-life of elimination [7]: approximately 8.5 hr
